Patent publication US11065244B2, “Methods of use of tetrahydroberberine (THB)” (DIGNITY HEALTH, priority 2010, dated 2021)
pIC50: −log10 of the molar value.

Experiments:
neuronal KATP channels = target: T1, neuronal KATP channels (Rattus norvegicus, UniProt P70673+Q09429); test: Rotenone-induced outward current in voltage-clamp mode in the presence of the D2 receptor antagonist sulpiride; type: cell-based; conditions: 100 mM substance as printed; sulpiride present; VH −30 mV; from 125.8±37.1 pA; 6 neurons; p<0.01
T1 construct: functional KATP channels natively expressed on midbrain dopamine neurons; from tissue; host or cells: acutely dissociated dopaminergic neurons of rat substantia nigra pars compacta
Description: The protocol for preparation of single neurons from the rat SNc was approved by the Institutional Animal Care and Use Committee of the Barrow Neurological Institute. Single DA neurons were acutely dissociated from the SNc of 2-3-week-old Wistar rats following the protocol as previously described. Briefly, rats were anesthetized with isoflurane, and brain tissue was rapidly removed and immersed in cold (2-4° C.) dissection solution which contained: 136.7 mM NaCl, 5 mM KCl, 0.1 mM Na2HPO4, 0.2 mM KH2PO4, 9.84 mM HEPES, 16.6 mM D-glucose, 21.9 mM sucrose, pH 7.3, 330 mOsm, oxygenated with 100% O2 [8]. Three 400-μm coronal slices containing the SNc were cut using a vibrotome (Vibroslice 725M, WPI, Sarasota, Fla.). After cutting, slices were continuously bubbled with 95% O2-5% CO2 at room temperature (22±1° C.) for at least one hour in artificial cerebrospinal fluid (ACSF), which contained: 124 mM NaCl, 5 mM KCl, 24 mM NaHCO3, 1.3 mM MgSO4, 1.2 mM KH2PO4, 2.4 mM CaCl2, and 10 mM glucose, pH 7.4. Thereafter, slices were treated with pronase (1 mg per 6 ml) at 31° C. for 30 minutes in ACSF. The SNc was identified in a coronal slice using a stereo microscope with reference to the rat brain atlas, and was micro-punched out from slices using a well-polished needle. One punched piece was then transferred to a 35-mm culture dish filled with well-oxygenated standard extracellular solution, which contained: 150 mM NaCl, 5 mM KCl, 1 mM MgCl2, 2 mM CaCl2, 10 mM glucose 10, and 10 mM HEPES, pH 7.4 (with Tris-base). The punched piece was then dissociated mechanically using a fire-polished micro-Pasteur pipette under an inverted microscope (Olympus IX-70, Lake Success, N.Y.). The separated cells adhered to the bottom of the culture dish within 30 minutes. […]
Perforated patch whole-cell recording techniques were employed as previously described. […] The liquid junction potential was 14 mV calculated using Clamplex 9.2 (Axon Instruments, Foster City, Calif.) and corrections were made for junction potentials post-hoc. […]

rat pancreatic islets = test: Insulin release from rat pancreatic islets; type: cell-based; conditions: 100 μM; 5.5 mM glucose external; from 22.5±1.2
Description: With 5.5 mM glucose in the external solution, basal insulin secretion was measured. […] Bath application of 100 μM THB increased insulin secretion from 22.5±1.2 to 39.4±1.5 pg/islet/min (FIG. 5; P<0.01; 6 cells) and 100 μM Ipt increased insulin secretion from 22.5±1.2 to 34.5±1.8 pg/islet/min (FIG. 11; P<0.05; 7 cells).

SNc DA neurons = test: Perforated patch current-clamp recording of membrane potential and firing of dissociated SNc DA neurons, substance applied alone; type: cell-based, rat
Description: (§1) The protocol for preparation of single neurons from the rat SNc was approved by the Institutional Animal Care and Use Committee of the Barrow Neurological Institute. Single DA neurons were acutely dissociated from the SNc of 2-3-week-old Wistar rats following the protocol as previously described. Briefly, rats were anesthetized with isoflurane, and brain tissue was rapidly removed and immersed in cold (2-4° C.) dissection solution which contained: 136.7 mM NaCl, 5 mM KCl, 0.1 mM Na2HPO4, 0.2 mM KH2PO4, 9.84 mM HEPES, 16.6 mM D-glucose, 21.9 mM sucrose, pH 7.3, 330 mOsm, oxygenated with 100% O2 [8]. Three 400-μm coronal slices containing the SNc were cut using a vibrotome (Vibroslice 725M, WPI, Sarasota, Fla.). After cutting, slices were continuously bubbled with 95% O2-5% CO2 at room temperature (22±1° C.) for at least one hour in artificial cerebrospinal fluid (ACSF), which contained: 124 mM NaCl, 5 mM KCl, 24 mM NaHCO3, 1.3 mM MgSO4, 1.2 mM KH2PO4, 2.4 mM CaCl2, and 10 mM glucose, pH 7.4. Thereafter, slices were treated with pronase (1 mg per 6 ml) at 31° C. for 30 minutes in ACSF. The SNc was identified in a coronal slice using a stereo microscope with reference to the rat brain atlas, and was micro-punched out from slices using a well-polished needle. One punched piece was then transferred to a 35-mm culture dish filled with well-oxygenated standard extracellular solution, which contained: 150 mM NaCl, 5 mM KCl, 1 mM MgCl2, 2 mM CaCl2, 10 mM glucose 10, and 10 mM HEPES, pH 7.4 (with Tris-base). The punched piece was then dissociated mechanically using a fire-polished micro-Pasteur pipette under an inverted microscope (Olympus IX-70, Lake Success, N.Y.). The separated cells adhered to the bottom of the culture dish within 30 minutes. In the present study, we used only DA neurons that maintained their original morphological features of polygonal, large or medium somata with 2-4 thick primary dendritic processes were used.
Perforated patch whole-cell recording techniques were employed as previously described. Pipettes (3-5 MΩ) used for perforated patch recording were filled with intracellular recording solution containing 140 mM potassium gluconate, 10 mM KCl, 5 mM MgCl2, and 10 mM HEPES, pH 7.2 (with Tris-OH). The amphotericin B was freshly prepared to 200-240 μg/ml from a 40 mg/ml in DMSO stock. The liquid junction potential was 14 mV calculated using Clamplex 9.2 (Axon Instruments, Foster City, Calif.) and corrections were made for junction potentials post-hoc. After tight seal (>2 GΩ) formation, it usually took about 5-20 min to convert to perforated patch mode, and an access resistance of 20-60 MΩ was accepted to start the experiments. Series resistance was not compensated in this study. The data were filtered at 2 kHz, acquired at 10 kHz and digitized on-line (Digidata 1322 series A/D board, Axon Instruments, Foster City, Calif.). […] Drug application was performed using a computer-controlled “U-tube” system as previously described. All experiments were performed at room temperature (22±1° C.). To enable identification of single, dissociated SNc neurons after a patch-clamp recording session, the recording pipette was filled with a fluorescent dye (lucifer yellow CH, Sigma Chemical Co., St. Louis, Mo., 1.0 mg/ml in the recording electrode) in some experiments. After conversion from the perforated patch to the conventional whole-cell recording mode, the dye was ejected into the cytoplasm by a pulse (200 ms, 0.5 Hz) of hyperpolarizing current (1.0 nA) for 3 min. Labeled cells were visualized using epifluorescence microscopy. […]

[1] = target: T2, KATP channels in SNc DA neurons (Rattus norvegicus, UniProt P70673+Q09429); test: Perforated patch current-clamp recording of rotenone-opened KATP channels in dissociated SNc DA neurons; type: cell-based; conditions: for altered membrane potential in the presence of rotenone: FIG. 5C
T2 construct: functional KATP channels natively expressed on midbrain dopamine neurons; from tissue; host or cells: acutely dissociated dopaminergic neurons of rat substantia nigra pars compacta
Description: as §1
Perforated patch whole-cell recording techniques were employed as previously described. Pipettes (3-5 MΩ) used for perforated patch recording were filled with intracellular recording solution containing 140 mM potassium gluconate, 10 mM KCl, 5 mM MgCl2, and 10 mM HEPES, pH 7.2 (with Tris-OH). The amphotericin B was freshly prepared to 200-240 μg/ml from a 40 mg/ml in DMSO stock. The liquid junction potential was 14 mV calculated using Clamplex 9.2 (Axon Instruments, Foster City, Calif.) and corrections were made for junction potentials post-hoc. After tight seal (>2 GΩ) formation, it usually took about 5-20 min to convert to perforated patch mode, and an access resistance of 20-60 MΩ was accepted to start the experiments. Series resistance was not compensated in this study. The data were filtered at 2 kHz, acquired at 10 kHz and digitized on-line (Digidata 1322 series A/D board, Axon Instruments, Foster City, Calif.). […] Drug application was performed using a computer-controlled “U-tube” system as previously described. All experiments were performed at room temperature (22±1° C.). To enable identification of single, dissociated SNc neurons after a patch-clamp recording session, the recording pipette was filled with a fluorescent dye (lucifer yellow CH, Sigma Chemical Co., St. Louis, Mo., 1.0 mg/ml in the recording electrode) in some experiments. After conversion from the perforated patch to the conventional whole-cell recording mode, the dye was ejected into the cytoplasm by a pulse (200 ms, 0.5 Hz) of hyperpolarizing current (1.0 nA) for 3 min. Labeled cells were visualized using epifluorescence microscopy.
Under physiological conditions, the KATP channels are mostly closed. However, in the acutely-dissociated single neurons from rat SNc, there is background opening of KATP channels. […]

T2 sequence (P70673 whole entry): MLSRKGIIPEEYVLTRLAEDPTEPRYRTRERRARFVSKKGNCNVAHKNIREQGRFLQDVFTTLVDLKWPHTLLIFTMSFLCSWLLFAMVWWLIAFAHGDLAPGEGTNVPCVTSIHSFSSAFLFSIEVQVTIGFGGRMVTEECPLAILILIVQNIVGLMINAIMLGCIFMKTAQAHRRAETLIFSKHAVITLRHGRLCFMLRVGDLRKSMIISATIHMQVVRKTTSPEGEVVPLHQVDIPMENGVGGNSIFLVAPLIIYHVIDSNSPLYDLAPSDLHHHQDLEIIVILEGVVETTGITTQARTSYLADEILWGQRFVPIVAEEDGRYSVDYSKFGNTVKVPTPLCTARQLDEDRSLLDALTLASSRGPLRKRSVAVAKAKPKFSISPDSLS
T2 sequence (Q09429 whole entry): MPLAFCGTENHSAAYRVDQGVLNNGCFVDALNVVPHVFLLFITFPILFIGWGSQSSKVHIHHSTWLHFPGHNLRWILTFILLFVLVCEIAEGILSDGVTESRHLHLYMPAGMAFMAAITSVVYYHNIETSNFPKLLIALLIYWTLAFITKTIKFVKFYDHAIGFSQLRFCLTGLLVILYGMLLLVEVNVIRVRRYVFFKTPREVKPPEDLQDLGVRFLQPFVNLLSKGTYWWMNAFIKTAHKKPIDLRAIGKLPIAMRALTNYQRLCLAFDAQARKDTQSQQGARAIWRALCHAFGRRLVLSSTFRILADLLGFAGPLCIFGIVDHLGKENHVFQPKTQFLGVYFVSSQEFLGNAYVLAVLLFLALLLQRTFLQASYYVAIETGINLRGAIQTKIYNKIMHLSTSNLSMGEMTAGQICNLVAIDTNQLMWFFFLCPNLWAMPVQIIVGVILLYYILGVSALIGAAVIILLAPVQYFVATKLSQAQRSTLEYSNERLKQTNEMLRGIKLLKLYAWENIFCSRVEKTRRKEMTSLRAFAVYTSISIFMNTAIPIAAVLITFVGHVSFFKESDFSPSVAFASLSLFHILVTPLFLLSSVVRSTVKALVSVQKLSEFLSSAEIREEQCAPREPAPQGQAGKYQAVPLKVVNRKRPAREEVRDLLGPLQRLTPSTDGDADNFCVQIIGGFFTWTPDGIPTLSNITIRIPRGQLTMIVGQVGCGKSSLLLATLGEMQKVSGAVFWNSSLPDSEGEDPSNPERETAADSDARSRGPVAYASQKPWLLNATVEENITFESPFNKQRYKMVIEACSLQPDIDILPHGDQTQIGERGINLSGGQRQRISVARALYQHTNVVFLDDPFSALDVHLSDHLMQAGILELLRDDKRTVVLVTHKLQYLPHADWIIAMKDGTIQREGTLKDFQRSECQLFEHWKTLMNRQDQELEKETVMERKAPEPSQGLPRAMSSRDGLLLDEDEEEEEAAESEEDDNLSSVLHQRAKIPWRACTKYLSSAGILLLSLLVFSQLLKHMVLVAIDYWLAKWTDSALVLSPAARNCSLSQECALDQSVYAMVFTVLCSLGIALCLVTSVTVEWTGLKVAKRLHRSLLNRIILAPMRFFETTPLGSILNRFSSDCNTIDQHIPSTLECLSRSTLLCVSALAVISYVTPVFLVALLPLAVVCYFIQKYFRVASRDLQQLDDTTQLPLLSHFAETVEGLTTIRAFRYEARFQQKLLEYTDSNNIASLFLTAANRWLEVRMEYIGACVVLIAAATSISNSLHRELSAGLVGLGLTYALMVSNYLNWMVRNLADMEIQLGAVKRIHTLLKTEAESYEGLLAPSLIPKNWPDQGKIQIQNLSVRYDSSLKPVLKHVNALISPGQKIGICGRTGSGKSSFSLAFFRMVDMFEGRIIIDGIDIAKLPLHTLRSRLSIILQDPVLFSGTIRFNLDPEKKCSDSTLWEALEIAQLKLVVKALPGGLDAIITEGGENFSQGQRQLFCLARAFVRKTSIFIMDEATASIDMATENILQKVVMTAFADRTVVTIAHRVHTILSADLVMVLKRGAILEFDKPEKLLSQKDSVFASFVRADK
T1 sequence (P70673 whole entry): as the sequence (P70673 whole entry) above
T1 sequence (Q09429 whole entry): as the sequence (Q09429 whole entry) above

COc1ccc2c(c1OC)CN1CCc3cc4c(cc3C1C2)OCO4 (stereo not drawn) [THB, tetrahydroberberine]
rotenone-induced outward current amplitude after addition of substance (neuronal KATP channels): 52.5±25.7 pA
insulin secretion after bath application (rat pancreatic islets): 39.4±1.5 pg/islet/min
firing rate of spontaneous action potentials after exposure (SNc DA neurons; 100 μM bath-perfusion, before exposure 1.4 Hz, n=7, p<0.05): 2.2 Hz
membrane potential after exposure to substance alone (SNc DA neurons; 100 μM, before: THB −46.5±0.9 (n=7), tolbutamide −44.4±1.6 (n=5)): −41.3±1.9 mV
membrane potential after substance during persistent perfusion of rotenone ([1]; 1 μM rotenone, before: THB −61.7±1.3 (n=11), tolbutamide −61.6±1.2 (n=21), p<0.01): −46.7±0.9 mV
altered membrane potential in the presence of rotenone ([1]; 1 μM substance): 0.8±0.3 mV
altered membrane potential in the presence of rotenone ([1]; 10 μM substance): 5.7±0.7 mV
altered membrane potential in the presence of rotenone ([1]; 100 μM substance): 15.1±1.2 mV
altered membrane potential (depolarization) on rotenone-opened KATP channels, analog comparison ([1]; 100 μM, 6 neurons, FIG. 4B): 15.5±1.6 mV
Hill coefficient of concentration-effect relationship curve ([1]; membrane depolarization in the presence of rotenone): 2.1
pIC50 ([1]; membrane depolarization in the presence of rotenone, read-out: IC50 of concentration-effect relationship curve (block of KATP channels)): 4.88
effect on rotenone-induced membrane hyperpolarization in the presence of D2 receptor antagonist ([1]; rotenone 1 mM and sulpiride 10 mM as printed, 6 neurons, FIG. 7A): significantly restored membrane hyperpolarization and action potential firing
